In US20110098255A1, “COMBINATION OF A PARP INHIBITOR AND AN AKT KINASE ACTIVATING COMPOUND” (priority 2008, published 2011):

Legend:
[1] = system: MBP induced formation of EAE in PJSJL mice; conditions: cited from earlier work
[2] = system: LPS induced septic shock in normal BALB/c mice; conditions: cited from earlier work
[3] = system: cuprisone induced changes in the central nervous system of C57BL/6 mice (corpus callosum demyelinization); experiment: Cuprizone induced demyelinization determined with MRI (CC/control tube intensity); type: in vivo; conditions: cuprizone-treated mice, after 5 weeks of treatment, i.p.
Protocol: (§1) During the experiment C57BL/6 mice were kept in a standard environment, they were given tap water and ground mice feed ad libitum. The mice were taken care of according to ethical requirements relating to treatment of animals.
(§2) According to a previously described method [Journal of Neuroimmunology 92 (1998): 38-49], 7-8 week old C57BL/6 male mice were treated for 6 weeks per os with cuprizone (Sigma, Steinheim, Germany). The mice were divided into 5 groups with 8 mice in each group.
(§3) Oxidation of cuprizone was prevented by giving fresh feed to the mice every day. PARP inhibitors and/or Akt kinase activating agents were placed in physiological saline solution, filtered to sterility, and administered intraperitoneally in the proper dosage. […] Control animals were given i.p. an amount of sterile physiological solution corresponding to their bodymass.
(§4) It is known from the literature (NMR Biomed. 2005 Oct.; 18(6):395-403) that T1 and T2 MRI image intensity correlates with the degradation and regeneration of the myelin sheath in this model. Oedema and hydrocephalus registers as hyperintensity on the T2 image. For quantification of hydrocephalus MRI is more suitable than histology because during fixation and histological processing there is significant shrinkage and volume degradation (Exp. Neurology 118 (1992): 1-6). MRI micro image technique makes it possible to study the above changes in vivo for weeks.
(§5) After three weeks, the mice were placed into the NMR instrument in narcosis every week [5 mg/kg bodymass diazepam (Seduxen) and 90 mg/kg bodymass ketamine (Calypsol, Richter Gedeon Zrt., Budapest) intraperitoneally]. T1 and T2 images were acquired with Varian ^uNITYIINOVA NMR spectrometer from the bulbus olfactorius to the beginning of the spinal cord in transverse sections of 1 mm thickness. Signal intensity of a glass tube with 1 mm internal diameter, which was filled with 9:1 water-glycerin mixture, was used as outer control. The development and size of demyelinization was determined by comparing average signal intensity detected at the area of the corpus callosum with the average intensity of the outer control. Average signal intensity of the corpus callosum (CC) was determined by an expert who was blind to the experiment from the section 1 mm posterior to the bregma by manually marking the region of interest (ROI), i.e. the corpus callosum (CC). Intensity of ROI was normalized to the intensity of the control tube.

[4] = system: cuprisone induced changes in the central nervous system of C57BL/6 mice (hydrocephalus); experiment: Cuprizone induced hydrocephalus determined with MRI (chamber/brain volume ratio); type: in vivo; conditions: cuprizone-treated mice, after 5 weeks of treatment, i.p.
Protocol: as §1, §2, §3, §4, §5
The development and the degree of hydrocephalus were quantified by calculating the chamber/brain volume ratio. The area of the chambers was outlined manually in each section, and the whole volume was calculated as the sum of the areas multiplied with the thickness of the sections (1 mm). The same method was used for the determination of the […].

[5] = Example 1, doxycycline 1 mg/kg, estriol 0,4 mg/kg bodymass
[6] = Example 2, doxycycline 1 mg/kg, trans-resveratrol 0,4 mg/kg bodymass
[7] = Example 3, 4-HQ 20 mg/kg, trans-resveratrol 0,4 mg/kg bodymass
[8] = Example 4, Carb 2 mg/kg, trans-resveratrol 0.4 mg/kg bodymass

CN(C)CC(=O)Nc1ccc2[nH]c(=O)c3ccccc3c2c1.Cl [PJ-34, N-(6-oxo-5 ,6-dihydrophenanthridin-2-yl)-N,N-dimethylacetamide.HCl]
MBP induced formation of EAE [1]: effectively decreased
prevention of LPS induced septic shock [2]: successful in preventing LPS induced septic shock

C[C@H]1c2cccc(O)c2C(=O)C2=C(O)[C@]3(O)C(=O)C(C(N)=O)=C(O)[C@@H](N(C)C)[C@@H]3[C@@H](O)[C@@H]21 [doxycycline]
CC/control tube (demyelinization) [3, 5]: 1.1 ± 0.18
CC/control tube (demyelinization) [3, 6]: 1.2 ± 0.17
Chamber/brain vol. ratio (hydrocephalus) [4, 5]: 0.128 ± 0.012
Chamber/brain vol. ratio (hydrocephalus) [4, 6]: 0.117 ± 0.02

C[C@]12CC[C@@H]3c4ccc(O)cc4CC[C@H]3[C@@H]1C[C@@H](O)[C@@H]2O [estriol]
CC/control tube (demyelinization) [3, 5]: 1.2 ± 0.13
Chamber/brain vol. ratio (hydrocephalus) [4, 5]: 0.134 ± 0.02

Oc1ccc(/C=C/c2cc(O)cc(O)c2)cc1 [resveratrol, trans-resveratrol]
CC/control tube (demyelinization) [3, 6]: 1.3 ± 0.09
CC/control tube (demyelinization) [3, 7]: 1.3 ± 0.09
CC/control tube (demyelinization) [3, 8]: 1.3 ± 0.09
Chamber/brain vol. ratio (hydrocephalus) [4, 6]: 0.138 ± 0.017
Chamber/brain vol. ratio (hydrocephalus) [4, 7]: 0.138 ± 0.017
Chamber/brain vol. ratio (hydrocephalus) [4, 8]: 0.138 ± 0.017
